Each structure is given as a SMILES string.

One experiment has as its system NUAK isoforms. As to the kind of experiment: Kinase assays, NUAK isoforms. Type of experiment: biochemical. The conditions noted are these: in vitro.
A further experiment concerns LKB1−/− cells. As to the kind of experiment: CREB-dependent gene transcription in IL-1 stimulated LKB1+/+ and LKB1−/− MEFs. Format: cell-based, mouse.
The subject of a further experiment is LKB1−/− macrophages. As to the kind of experiment: Cytokine secretion in LKB1−/− macrophages. Format: cell-based, mouse. An excerpt: FIGS. 9A to 9I. Genetic evidence using LKB1-deficient macrophages and a drug-resistant mutant of SIK2 to establish that inhibition of SIKs induces IL-10 production. (FIG. 9A) Loss of CRTC3 phosphorylation in LKB1−/− MEFs. (FIG. 9B) Enhanced IL-10 production and reduced secretion of pro-inflammatory cytokines in LysM-Cre-LKB1flox/flox macrophages (n=3, mean±SD). (FIG. 9C) Sequence alignment of AMPK-related kinases. The ‘gatekeeper’ site is indicated using an asterisk. (FIG. 9D) […] curves of KIN112 against different SIK2 mutants. […]. (FIG. 9F) Induction of HA-SIK2 (WT and [T96Q]) expression in RAW264.7 macrophages. […]. RAW264.7 cells were induced to express HA-SIK2-WT or HA-SIK2[T96]. As a further control, cells transduced with the empty vector and which only express endogenous SIK isoforms were also used. […]. […]. IL-10^−/− mice on a C57BL/6 background were purchased from The Jackson Laboratory, Maine, USA. LKB1^flox/flox mice on a C57BL/6 background were a generous gift from Alan Ashworth and were crossed with LysM-Cre mice to delete LKB1 in macrophages. Mice were bred at the University of Dundee under specific pathogen-free conditions in accordance with European Union regulations. Water supply for IL-10^−/− mice was supplemented with antibiotics to prevent the development of colitis. Work was approved by local ethical review and was performed with a UK Home Office project license. […]

The next experiment concerns CRTC3. As to the kind of experiment: CRTC3 nuclear translocation (immunofluorescence, live imaging). The conditions noted are these: WT CRTC3. Format: cell-based. The text has this:
FIGS. 15A to 15C. SIK inhibitors induce the dephosphorylation of CRTC3 at Ser62, Ser162, Ser329 and Ser370 and its translocation to the nucleus. (FIG. 15A) HEK293 cells were transfected with FLAG-CRTC2, FLAG-CRTC3 or FLG-CRTC3[S162A]. Aliquots of the cell extracts were subjected to SDS-PAGE and immunoblotting using an antibody that recognizes CRTC2 phosphorylated at Ser171. […] (FIG. 15B) HEK293 cells were transfected with FLAG-CRTC3, FLAG-CRTC3[S62A/S162A/S329A/S370A] (termed CRTC3-4A) or with empty vector (FLAG-ev). […]. (FIG. 15C) Inhibition of SIKs promotes the translocation of endogenous CRTC3 to the nucleus. […].
RAW264.7 cells were grown on glass coverslips and treated with inhibitors for 1 h. Cells were then fixed for 10 min in 3.7% paraformaldehyde, permeabilized for 5 min using 0.1% Triton X-100 in PBS and blocked for 45 min using 3% BSA in PBS. Cells were stained with anti-CRTC3 (Abcam 1:200) and anti-α-tubulin (Santa Cruz 1:500) followed by anti-rabbit-alexa488 and anti-mouse-alexa594 (Invitrogen 1:500), respectively. Antibodies were diluted in blocking buffer and incubated with the cells for 45 min. […] Images were recorded every 30 s for 1.5 min prior to the addition of drug after which cells were imaged for a further 60 min.

Protocol for NUAK isoforms: FLAG-CRTC3 was immunoprecipitated using anti-FLAG M2 agarose, washed in kinase buffer (50 mM Tris/HCl pH 7.4, 10 mM Mg acetate, 0.1 mM EGTA, 2 mM DTT) and reactions initiated by adding 4 U/ml recombinant kinase with 0.1 mM ATP (specific activity 3000 cpm/pmol). Phosphorylation of CRTC3 was monitored by autoradiography as well as immunoblotting using phosphospecific antibodies raised against Ser162, Ser329 and Ser370.

Turning to `O=C(NCCCNc1nc(Nc2cccc(CN3CCOCC3)c2)ncc1C1CC1)C1CCC1` [MRT67307], the “inhibition of NUAK isoforms” value with NUAK isoforms was “comparable potency to the IKK-related kinases”. Besides, the CREB-dependent gene transcription result with LKB1−/− cells (LKB1+/+ cells) was “enhanced”. Moreover, in the experiment with LKB1−/− cells (LKB1−/− cells), the “transcription of Nurr1 and Nurr77” value was “only be increased to a small extent”.

Regarding `COc1ccc(N(C(=O)Nc2c(C)cccc2C)c2cc(Nc3ccc(N4CCN(C)CC4)cc3)ncn2)c(OC)c1` [HG-9-91-01, 1-(2,4-dimethoxyphenyl)-3-(2,6-dimethylphenyl)-1-(6-((4-(4-methylpiperazin-1-yl)phenyl)amino)pyrimidin-4-yl)urea], the “IL-10, IL-12 and TNFα secretion in response to LPS” value in the experiment with LKB1−/− macrophages was “unaffected”. For the same compound, in the experiment on CRTC3, the CRTC3 nuclear translocation result is listed as “translocates to the nucleus”.

Values taken from patent US10233157B2, “SIK inhibitor for use in a method of treating an inflammatory and/or immune disorder” (Dana-Farber Cancer Institute, Inc., priority 2012, dated 2019).
